Assay [1] addresses T1, FimH-CRD (Escherichia coli, UniProt P08191).
T1 construct: The first 177 amino acids of the FimH protein; thrombin tag (printed as 'fusion protein with thrombin') (cleaved yes); made in house; host or cells: bacteria (pET21b plasmid)
As to the kind of experiment: Competitive binding assay by fluorescence polarization, assay 1 (compounds prepared by manual serial dilution). An outline of the steps: (§1)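 Fluorescence-polarization competition of 5 nM Alexa 647 mannoside probe with 60 nM FimH-CRD (first 177 residues, tag removed) in Tris-Cl pH 7.0, NaCl, EDTA, β-ME, BSA, 2.5% DMSO, 5 h at RT in the dark. Twelve-point 3-fold titrations (0.4 nM–75 μM) in duplicate; Kd interpolated from displacement curves.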

The target of assay [2] is T1, FimH-CRD. As to the kind of experiment: Competitive binding assay by fluorescence polarization, assay 2 (compounds prepared by robotics, plates frozen and thawed). The method in brief:
as §1
For orientation: Fluorescence polarisation rises when a labelled molecule tumbles more slowly, as on binding a larger partner.

T1 sequence (P08191 22-177): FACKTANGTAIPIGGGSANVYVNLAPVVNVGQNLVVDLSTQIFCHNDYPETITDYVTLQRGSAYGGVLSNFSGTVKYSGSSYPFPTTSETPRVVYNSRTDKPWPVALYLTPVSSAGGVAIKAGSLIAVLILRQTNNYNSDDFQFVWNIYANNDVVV

Take `Cn1cnc2ccc(-c3cccc([C@H]4O[C@H](CO)[C@@H](O)[C@H](O)[C@@H]4O)c3)cc21` [Compound 4, (2R,3S,4R,5S,6R)-2-(hydroxymethyl)-6-[3-(3-methylbenzimidazol-5-yl)phenyl]tetrahydropyran-3,4,5-triol]: at FimH-CRD [1], the IC50 stood at 0.019 µM. In addition, the Kd is 0.0051 ± 0.0001 µM on FimH-CRD [1] and 0.0136 ± 0.0061 µM at FimH-CRD [2].

At FimH-CRD [1], `OC[C@H]1O[C@H](c2cccc(-c3cncnc3)c2)[C@@H](O)[C@@H](O)[C@@H]1O` [Compound 10, (2R,3S,4R,5S,6R)-2-(hydroxymethyl)-6-(3-pyrimidin-5-ylphenyl)tetrahydropyran-3,4,5-triol] returned an IC50 of 0.099 µM and a Kd of 0.0134 ± 0.0066 µM. Also, binding at FimH-CRD [2] was characterised by a dissociation constant (Kd) of 0.0101 ± 0.0006 µM.

Compound `OC[C@H]1O[C@H](c2cccc(-c3cc4ccccc4s3)c2)[C@@H](O)[C@@H](O)[C@@H]1O` [Compound 12, (2R,3S,4R,5S,6R)-2-[3-(benzothiophen-2-yl)phenyl]-6-(hydroxymethyl)tetrahydropyran-3,4,5-triol] gave an IC50 at FimH-CRD [1] of 0.067 µM. Besides, the Kd on FimH-CRD [1] amounted to 0.0092 ± 0.0044 µM; at FimH-CRD [2] it was 0.0117 ± 0.0061 µM.

On FimH-CRD [1], `N#Cc1ccc(-c2cccc([C@H]3O[C@H](CO)[C@@H](O)[C@H](O)[C@@H]3O)c2)cc1` [Compound 22, 3′-((2R,3S,4R,5S,6R)-3,4,5-trihydroxy-6-(hydroxymethyl)tetrahydro-2H-pyran-2-yl)-[1,1′-biphenyl]-4-carbonitrile] came in with an IC50 of 0.049 µM and a dissociation constant (Kd) of 0.0066 ± 0.0008 µM. Moreover, the Kd on FimH-CRD [2] came to 0.0142 ± 0.0111 µM.

At FimH-CRD [1], `CNC(=O)c1cccc([C@H]2O[C@H](CO)[C@@H](O)[C@H](O)[C@@H]2O)c1` [Compound 35, N-methyl-3-((2R,3S,4R,5S,6R)-3,4,5-trihydroxy-6-(hydroxymethyl)tetrahydro-2H-pyran-2-yl)benzamide] yielded a concentration for half-maximal inhibition (IC50) of 0.172 µM and a Kd of 0.0562 ± 0.0049 µM. On FimH-CRD [2], this compound displayed a Kd of 0.113 µM.

Consider `CCCCNC(=O)c1cccc([C@H]2O[C@H](CO)[C@@H](O)[C@H](O)[C@@H]2O)c1` [Compound 38, N-butyl-3-((2R,3S,4R,5S,6R)-3,4,5-trihydroxy-6-(hydroxymethyl)tetrahydro-2H-pyran-2-yl)benzamide], for which the Kd at FimH-CRD [1] is 0.0504 ± 0.0036 µM; at FimH-CRD [2], 0.0724 ± 0.0348 µM.

`CNC(=O)c1cc(C(=O)NC)cc(-c2ccccc2[C@H]2O[C@H](CO)[C@@H](O)[C@H](O)[C@@H]2O)c1` [Compound 40, N^3,N^5-dimethyl-2′-((2R,3S,4R,5S,6R)-3,4,5-trihydroxy-6-(hydroxymethyl)tetrahydro-2H-pyran-2-yl)-[1,1′-biphenyl]-3,5-dicarboxamide]: at FimH-CRD [1], the IC50 was determined as 2.05 µM and the Kd stood at 0.474 ± 0.0495 µM. In addition, the dissociation constant (Kd) at FimH-CRD [2] worked out at 0.447 ± 0.49 µM.

On FimH-CRD [1], `COc1cccc([C@H]2O[C@H](CO)[C@@H](O)[C@H](O)[C@@H]2O)c1` [Compound 44, (2R,3S,4R,5S,6R)-2-(hydroxymethyl)-6-(3-methoxyphenyl)tetrahydropyran-3,4,5-triol] displayed an IC50 of 0.156 µM. The values for the dissociation constant Kd at FimH-CRD [1] and on FimH-CRD [2] were 0.0418 ± 0.0116 µM and 0.0504 ± 0.0101 µM, respectively.

At FimH-CRD [1], `Cc1nnc(-c2ccc(-c3cccc([C@H]4O[C@H](CO)[C@@H](O)[C@H](O)[C@@H]4O)c3)cc2)o1` [Compound 48, (2R,3S,4R,5S,6R)-2-(hydroxymethyl)-6-[3-[4-(5-methyl-1,3,4-oxadiazol-2-yl)phenyl]phenyl]tetrahydropyran-3,4,5-triol] gave an IC50 of 0.034 µM and a Kd of less than 0.005 µM. The compound also registered a Kd on FimH-CRD [2] of 0.0085 ± 0.0013 µM.

At FimH-CRD [1], `COC(=O)c1cc(Oc2ccc([C@H]3O[C@H](CO)[C@@H](O)[C@H](O)[C@@H]3O)cc2)cc(C(=O)OC)c1` [Compound 53, dimethyl 5-(4-((2R,3S,4R,5S,6R)-3,4,5-trihydroxy-6-(hydroxymethyl)tetrahydro-2H-pyran-2-yl)phenoxy)isophthalate] registered an IC50 of 0.025 µM and a Kd of less than 0.005 µM. On FimH-CRD [2], this compound returned a Kd of 0.0157 ± 0.0102 µM.

At FimH-CRD [2], `OC[C@H]1OC(c2ccc(OCc3cc(Cl)cc(Cl)c3)cc2)[C@@H](O)[C@@H](O)[C@@H]1O` (stereo partly drawn) [Compound 250] returned a Kd of 0.0406 ± 0.0234 µM.

At FimH-CRD [2], `OC[C@H]1OC(c2ccc(OCc3cccc4nonc34)cc2)[C@@H](O)[C@@H](O)[C@@H]1O` (stereo partly drawn) [Compound 251] came in with a Kd of 0.0299 ± 0.0139 µM.

In turn, `OC[C@H]1O[C@H](c2cccc(Oc3ccncc3)c2)[C@@H](O)[C@@H](O)[C@@H]1O` [Compound 252, (2R,3S,4R,5S,6R)-2-(hydroxymethyl)-6-[3-(4-pyridyloxy)phenyl]tetrahydropyran-3,4,5-triol] gave a Kd on FimH-CRD [2] of 0.0132 ± 0.0022 µM.

Take `OC[C@H]1O[C@H](c2cccc(Oc3nc4ccccc4s3)c2)[C@@H](O)[C@@H](O)[C@@H]1O` [Compound 253, (2R,3S,4R,5S,6R)-2-[3-(1,3-benzothiazol-2-yloxy)phenyl]-6-(hydroxymethyl)tetrahydropyran-3,4,5-triol]: the Kd on FimH-CRD [2] was less than 0.005 µM.

`OC[C@H]1OC(c2cccc(Oc3ccnc4ccccc34)c2)[C@@H](O)[C@@H](O)[C@@H]1O` (stereo partly drawn) [Compound 254] yielded a Kd at FimH-CRD [2] of 0.0079 µM.

In turn, `OC[C@H]1O[C@H](c2cccc(Oc3ncccn3)c2)[C@@H](O)[C@@H](O)[C@@H]1O` [Compound 256, (2R,3S,4R,5S,6R)-2-(hydroxymethyl)-6-(3-pyrimidin-2-yloxyphenyl)tetrahydropyran-3,4,5-triol] displayed a Kd on FimH-CRD [2] of 0.0676 ± 0.0218 µM.

For the compound `O=[N+]([O-])c1ccc(Oc2cccc([C@H]3O[C@H](CO)[C@@H](O)[C@H](O)[C@@H]3O)c2)cn1` [Compound 257, (2R,3S,4R,5S,6R)-2-(hydroxymethyl)-6-[3-[(6-nitro-3-pyridyl)oxy]phenyl]tetrahydropyran-3,4,5-triol], binding on FimH-CRD [2] was put at a Kd of 0.0192 ± 0.0063 µM.

For `Nc1ccc(Oc2cccc([C@H]3O[C@H](CO)[C@@H](O)[C@H](O)[C@@H]3O)c2)cn1` [Compound 258, (2R,3S,4R,5S,6R)-2-[3-[(6-amino-3-pyridyl)oxy]phenyl]-6-(hydroxymethyl)tetrahydropyran-3,4,5-triol], binding at FimH-CRD [2] was characterised by a dissociation constant (Kd) of 0.0319 ± 0.0063 µM.

At FimH-CRD [2], `OCc1cccc([C@H]2O[C@H](CO)[C@@H](O)[C@H](O)[C@@H]2O)c1` [Compound 260, (2R,3S,4R,5S,6R)-2-(hydroxymethyl)-6-[3-(hydroxymethyl)phenyl]tetrahydropyran-3,4,5-triol] gave a Kd of 0.125 ± 0.0526 µM.

In turn, `COC(=O)c1ccc(OCc2cccc([C@H]3O[C@H](CO)[C@@H](O)[C@H](O)[C@@H]3O)c2)cc1` [Compound 261, methyl 4-[[3-[(2R,3S,4R,5S,6R)-3,4,5-trihydroxy-6-(hydroxymethyl)tetrahydropyran-2-yl]phenyl]methoxy]benzoate] showed a Kd on FimH-CRD [2] of 0.0322 ± 0.0081 µM.

Compound `OC[C@H]1O[C@H](c2cccc(COc3ccccc3)c2)[C@@H](O)[C@@H](O)[C@@H]1O` [Compound 262, (2R,3S,4R,5S,6R)-2-(hydroxymethyl)-6-[3-(phenoxymethyl)phenyl]tetrahydropyran-3,4,5-triol] showed a Kd on FimH-CRD [2] of 0.0266 ± 0.0114 µM.

On FimH-CRD [2], `OC[C@H]1O[C@H](c2cccc(COc3cc(Cl)cc(Cl)c3)c2)[C@@H](O)[C@@H](O)[C@@H]1O` [Compound 263, (2R,3S,4R,5S,6R)-2-[3-[(3,5-dichlorophenoxy)methyl]phenyl]-6-(hydroxymethyl)tetrahydropyran-3,4,5-triol] returned a Kd of 0.0223 ± 0.005 µM.

At FimH-CRD [2], `CNC(=O)c1ccc(OCc2cccc([C@H]3O[C@H](CO)[C@@H](O)[C@H](O)[C@@H]3O)c2)cc1` [Compound 264, N-methyl-4-[[3-[(2R,3S,4R,5S,6R)-3,4,5-trihydroxy-6-(hydroxymethyl)tetrahydropyran-2-yl]phenyl]methoxy]benzamide] registered a Kd of 0.0308 ± 0.0091 µM.

A word on the IC50: it is the midpoint of a concentration-inhibition curve. Read a low IC50 as higher potency. The Kd is a measure of binding affinity in units of concentration. High values mean lower affinity, low ones higher affinity.

These data come from patent US20130261077A1 (priority 2012, published 2013).
